In brackets after ≈: the same amount, converted by molar mass. Like-named read-outs stand apart in the source and are kept apart here.
What was measured:
P. aeruginosa LESB58 [1] = experiment: Murine high density subcutaneous skin abscess model; type: in vivo, Pseudomonas aeruginosa; settings: for Area of dermoncecrosis, Mean: female Swiss Webster mice; for Area of dermoncecrosis, Mean / Area of dermoncecrosis, % reduction / CFU per abscess, Fold change / CFU per abscess, Geometric mean: day 3; for Area of dermoncecrosis, % reduction / CFU per abscess, Fold change: compared to the vehicle control
Experimental: Mice used in this study were female Swiss Webster aged approximately 6-7 weeks and sourced from the University of Otago Biomedical Research Facility. […] The subcutaneous abscess infection model was performed as previously described ([Pletzer et al., 2017]) with a higher inoculum. Briefly, the fur on the back of each mouse was removed by shaving and chemical depilation. Antibiotics were tested for skin toxicity by injecting 50 μL of antibiotic suspension subcutaneously into naïve mice, and subsequent inspection of the skin for inflammation on the next day. P. aeruginosa LESB58 was grown to mid-log phase in dYT broth, washed twice in sterile PBS (Gibco, pH 7.4), and resuspended in PBS to ~1 x 10^8 CFU per 50 μL inoculum. The bacterial suspension (50 μL) was injected subcutaneously into the right side of the dorsum, followed one hour later by 50 μL of antibiotic treatment injected directly into the infected area. […] Combination treatments were administered as a single 50 μL injection containing both antibiotics. The concentration of each antibiotic in the combination was the same as when it was used alone. Progression of the infection was monitored daily, and abscess dimensions were measured on day three using a calliper. On day three, abscess tissue and pus were excised, homogenized in sterile PBS using SPEX SamplePrep 1600 MiniG for five minutes and bacterial CFU counts determined by serial dilution. In this model, synergy was defined as being a significant difference between the combination treated group and the amalgamated group of single drug treated animals ([Fantin and Carbon, 1992]; [Pletzer et al., 2018]).
Statistical analysis was performed using GraphPad Prism 9.5.1. Bacterial CFU and abscess size data from in vivo experiments was analysed by Kruskal-Wallace test with Dunn’s correction for multiple comparisons. The data was considered significant when p-values were below 0.05 or 0.01 as indicated.

P. aeruginosa LESB58 [2] = experiment: In vitro synergy, checkerboard assay; type: cell-based, Pseudomonas aeruginosa; settings: MHB; for FICI, drug combined with CAZ / FICI, drug combined with CZA: FICI <= 0.5 indicates synergy
Experimental: (§1) For susceptibility testing under standard conditions, bacteria were cultured in Muller Hinton Broth MHB (Fort Richards Laboratories). Host mimicking conditions in vitro were simulated using tissue culture medium (TCM) consisting of Dulbecco’s modified Eagle medium (DMEM; Gibco #11965) supplemented with FBS (Moregate Biotech) (5% v/v) and glucose (1% w/v). Further susceptibility testing was also conducted in MHB supplemented with FBS (5% v/v) and DMEM supplemented with glucose (1% w/v) and MHB (10% v/v).
(§2) The P. aeruginosa LESB58.lux strain was used for in vitro synergy experiments with azithromycin in MHB and all antibiotic combinations in TCM to determine bacterial growth (as visual inspection and absorbance measurements were unreliable). Synergy was determined using the checkerboard method ([Berenbaum, 1978]; [Pletzer and Hancock, 2018]) in at least triplicate. Each antibiotic was two-fold serially diluted in sterile water before transferring to a 96-well plate containing 1 × 10^6 CFU mL^-1 bacteria in MHB or TCM. Plates were incubated at 37°C for 22-24 hours. The MIC alone or in combination was recorded as the lowest antibiotic concentration with no visible growth. For experiments using the LESB58.lux strain no visible growth was defined as an at least 95% reduction compared to the no antibiotic growth control in luminescence detected using a ClarioStar plate reader. The fractional inhibitory concentration index (FICI) was calculated as [(MICA in combination)/MICA] + [(MICB in combination)/MICB]. FICI values of 0.5 or below indicated synergy, while values above 0.5 up to and including 1 were taken to indicate additivity. FICI values above 1 indicate indifference or antagonism ([Odds, 2003]).

P. aeruginosa PAO1 = experiment: Minimum inhibitory concentration, broth microdilution; type: cell-based, Pseudomonas aeruginosa; settings: for Fold change TCM vs MHB (MIC): MIC in TCM vs MIC in MHB; for MIC: Pseudomonas aeruginosa, PAO1
Experimental: (§3) For susceptibility testing under standard conditions, bacteria were cultured in Muller Hinton Broth MHB (Fort Richards Laboratories). […] Further susceptibility testing was also conducted in MHB supplemented with FBS (5% v/v) and DMEM supplemented with glucose (1% w/v) and MHB (10% v/v).
The minimum inhibitory concentration (MIC) of each antibiotic was determined using the broth microdilution method in 96-well plates. […] Briefly, antibiotics were two-fold serially diluted in MHB or TCM prior to adding 1 × 10^6 CFU mL^-1 bacteria. Plates were incubated at 37°C for 22-24 hours. The MIC was recorded as the lowest antibiotic concentration with no visible growth and the median value of at least three biological replicates reported.

[3] = for Highest tolerated dose tested: 50 μL injected subcutaneously, skin inspected next day; for Toxic (visible skin irritation, inflammation, blood vessels, swelling): female, Swiss Webster, mouse, in vivo, sc, 1 day
Experimental: Mice used in this study were female Swiss Webster aged approximately 6-7 weeks and sourced from the University of Otago Biomedical Research Facility. […] Briefly, the fur on the back of each mouse was removed by shaving and chemical depilation. Antibiotics were tested for skin toxicity by injecting 50 μL of antibiotic suspension subcutaneously into naïve mice, and subsequent inspection of the skin for inflammation on the next day. P. aeruginosa LESB58 was grown to mid-log phase in dYT broth, washed twice in sterile PBS (Gibco, pH 7.4), and resuspended in PBS to ~1 x 10^8 CFU per 50 μL inoculum. The bacterial suspension (50 μL) was injected subcutaneously into the right side of the dorsum, followed one hour later by 50 μL of antibiotic treatment injected directly into the infected area. […] Combination treatments were administered as a single 50 μL injection containing both antibiotics. The concentration of each antibiotic in the combination was the same as when it was used alone. Progression of the infection was monitored daily, and abscess dimensions were measured on day three using a calliper. On day three, abscess tissue and pus were excised, homogenized in sterile PBS using SPEX SamplePrep 1600 MiniG for five minutes and bacterial CFU counts determined by serial dilution.

P. aeruginosa LESB58 [4] = experiment: microbe, parasite or virus in culture; type: cell-based, Pseudomonas aeruginosa; settings: for Fold change TCM vs MHB (MIC): MIC in TCM vs MIC in MHB; for MIC: Pseudomonas aeruginosa
Experimental: as §3
The minimum inhibitory concentration (MIC) of each antibiotic was determined using the broth microdilution method in 96-well plates. […] Briefly, antibiotics were two-fold serially diluted in MHB or TCM prior to adding 1 × 10^6 CFU mL^-1 bacteria. […] The MIC was recorded as the lowest antibiotic concentration with no visible growth and the median value of at least three biological replicates reported.

P. aeruginosa LESB58-lux = experiment: In vitro synergy, checkerboard assay (luminescence readout); type: cell-based, Pseudomonas aeruginosa; settings: LESB58-lux; for FICI, drug combined with CAZ / FICI, drug combined with CZA: FICI <= 0.5 indicates synergy
Experimental: as §1, §2

[5] = Colistin, tigecycline and tobramycin groups
[6] = LESB58, read-out: MIC in MHB, MHB, 20-24 h
[7] = LESB58, read-out: MIC in TCM, TCM (DMEM + 1% glucose + 5% FBS), 20-24 h
[8] = Azithromycin group, CAZ or CZA 50 mg/mL, AZM 6.25 mg/mL

CN(C)c1cc(NC(=O)CNC(C)(C)C)c(O)c2c1C[C@H]1C[C@H]3[C@H](N(C)C)C(O)=C(C(N)=O)C(=O)[C@@]3(O)C(O)=C1C2=O [TGC, tigecycline]
Area of dermoncecrosis, Mean (P. aeruginosa LESB58 [1]; Colistin, tigecycline and tobramycin groups (shared vehicle, CAZ and CZA mice), 50 μL s.c. 1 h after infection, CAZ or CZA 50, CST 1.25, TGC 2.5, TOB 2 mg/mL, vehicle 0.9% saline): 86.7 mm^2 | Area of dermoncecrosis, % reduction (P. aeruginosa LESB58 [1]; [5]): 7.7% | CFU per abscess, Fold change (P. aeruginosa LESB58 [1]; [5]): -2.4 | CFU per abscess, Geometric mean (P. aeruginosa LESB58 [1]; [5]): 1.0 × 10^8 CFU per abscess | Fold decrease in CAZ MIC, drug combined with CAZ (P. aeruginosa LESB58 [2]): 4 | Fold decrease in CZA MIC, drug combined with CZA (P. aeruginosa LESB58 [2]): 8 | Fold decrease in other MIC, drug combined with CAZ (P. aeruginosa LESB58 [2]): 8 | Fold decrease in other MIC, drug combined with CZA (P. aeruginosa LESB58 [2]): 8 | FICI, drug combined with CAZ (P. aeruginosa LESB58 [2]): 0.38 | FICI, drug combined with CZA (P. aeruginosa LESB58 [2]): 0.25 | FICI, drug combined with CAZ (P. aeruginosa LESB58 [2]; listed as tigecycline): < 0.4 | FICI, drug combined with CZA (P. aeruginosa LESB58 [2]; listed as tigecycline): < 0.4 | Fold change TCM vs MHB (MIC) (P. aeruginosa PAO1): >40 | MIC (P. aeruginosa PAO1; read-out: MIC in MHB): 12.5 µg/mL (≈ 21.3 µM) | MIC (P. aeruginosa PAO1; read-out: MIC in TCM): > 500 µg/mL | Highest tolerated dose tested [3]: 12 mg/mL | Toxic (visible skin irritation, inflammation, blood vessels, swelling) [3]: 25 mg/mL | Fold change TCM vs MHB (MIC) (P. aeruginosa LESB58 [4]): >80 | MIC (P. aeruginosa LESB58 [4]; [6]): 6.25 µg/mL (≈ 10.7 µM) | MIC (P. aeruginosa LESB58 [4]; [7]): > 500 µg/mL | MIC in TCM (P. aeruginosa LESB58 [4]; TCM (DMEM + 1% glucose + 5% FBS), 20-24 h): entirely lost its efficacy

CC[C@H]1OC(=O)[C@H](C)[C@@H](O[C@H]2C[C@@](C)(OC)[C@@H](O)[C@H](C)O2)[C@H](C)[C@@H](O[C@@H]2O[C@H](C)C[C@H](N(C)C)[C@H]2O)[C@](C)(O)C[C@@H](C)CN(C)[C@H](C)[C@@H](O)[C@]1(C)O [AZM, azithromycin]
Fold reduction of bacterial load (CFU) relative to vehicle (P. aeruginosa LESB58 [1]; Azithromycin experiments): ~ 42 | CFU per abscess, Fold change (P. aeruginosa LESB58 [1]; Azithromycin group): -42.1 | Area of dermoncecrosis, % reduction (P. aeruginosa LESB58 [1]; [8]): 36.4% | Area of dermoncecrosis, % reduction (P. aeruginosa LESB58 [1]; Azithromycin group, CAZ or CZA 50 mg/mL, AZM 6.25 mg/mL, listed as azithromycin): 36% | CFU per abscess, Geometric mean (P. aeruginosa LESB58 [1]; [8]): 8.5 × 10^6 CFU per abscess | Area of dermoncecrosis, Mean (P. aeruginosa LESB58 [1]; Azithromycin group, 50 μL s.c. into infected area 1 h after infection, CAZ or CZA 50 mg/mL, AZM 6.25 mg/mL, vehicle citric acid in saline): 64.5 mm^2 | Fold change TCM vs MHB (MIC) (P. aeruginosa PAO1): >-300 | MIC (P. aeruginosa PAO1; read-out: MIC in MHB): 250 µg/mL (≈ 334 µM) | MIC (P. aeruginosa PAO1; read-out: MIC in TCM): < 0.78 µg/mL | Highest tolerated dose tested [3]: 25 mg/mL | Toxic (visible skin irritation, inflammation, blood vessels, swelling) [3]: 50 mg/mL | Fold change TCM vs MHB (MIC) (P. aeruginosa LESB58 [4]): -100 | MIC (P. aeruginosa LESB58 [4]; [6]): 62.5 µg/mL (≈ 83.4 µM) | MIC (P. aeruginosa LESB58 [4]; [7]): 0.625 µg/mL | Fold increase of efficacy in TCM compared to MHB (P. aeruginosa LESB58 [4]; host mimicking TCM vs MHB): 100 | Fold decrease in CAZ MIC, drug combined with CAZ (P. aeruginosa LESB58-lux; MHB): 4 | Fold decrease in CZA MIC, drug combined with CZA (P. aeruginosa LESB58-lux; MHB): 4 | Fold decrease in other MIC, drug combined with CAZ (P. aeruginosa LESB58-lux; MHB): 4 | Fold decrease in other MIC, drug combined with CZA (P. aeruginosa LESB58-lux; MHB): 2 | FICI, drug combined with CAZ (P. aeruginosa LESB58-lux; MHB): 0.5 | FICI, drug combined with CZA (P. aeruginosa LESB58-lux; MHB): 0.75 | FICI, drug combined with CZA (P. aeruginosa LESB58-lux; MHB, listed as azithromycin): did not act synergistically | Fold decrease in CAZ MIC, drug combined with CAZ (P. aeruginosa LESB58-lux; TCM): 8 | Fold decrease in CZA MIC, drug combined with CZA (P. aeruginosa LESB58-lux; TCM): 2 | Fold decrease in other MIC, drug combined with CAZ (P. aeruginosa LESB58-lux; TCM): 2 | Fold decrease in other MIC, drug combined with CZA (P. aeruginosa LESB58-lux; TCM): 2 | FICI, drug combined with CAZ (P. aeruginosa LESB58-lux; TCM): 0.625 | FICI, drug combined with CZA (P. aeruginosa LESB58-lux; TCM): 1

Source: paper PMC11130353, “Using host-mimicking conditions and a murine cutaneous abscess model to identify synergistic antibiotic combinations effective against Pseudomonas aeruginosa” (Frontiers in Cellular and Infection Microbiology, 2024)
